Key:
[1] = tested on: human IGF-1 promoter; experiment: Human IGF-1 promoter luciferase reporter assay in HepG2 cells; format: cell-based
From the text: pREP4.hAR, expressing full length human AR, and pCMV.Sport.β-Gal, expressing β-galactosidase under a CMV promoter, were as described (Zhao et al., Steroids 69: 357-366, 2004). pcDNA5.rGR, expressing rat glucocorticoid receptor, was provided by Dr. Diane Robins (University of Michigan). The rARC562G vector expressing rat AR with a C562G mutation in the DBD, which results in a loss of DNA binding. The IGF-1 reporter genes pOLuc.1630, pOLuc1300, pOLuc926, pOLuc 320 were provided by Dr. Peter Rotwein (Oregon Health & Science University). These reporters expressed firefly luciferase under the control of 320 to 1630 bases upstream of the transcriptional start site of the human IGF-1 promoter as described in (Kim et al., Mol Endocrinol 5: 1964-1972, 1991). pEGX 4T-1 hAR2, expressing GST fused to the N-terminus of AR DNA-binding domain, was provided by Robert J. Matusik, Ph.D. (Vanderbuilt University Medical Center). pRL-CMV expressing Renilla luciferase was from Promega (Madison, Wis.).
HepG2 cells (ATCC, Bethesda, Md.) were maintained in Dulbecco's modified Eagle's medium (DMEM), supplemented with 10% fetal bovine serum (FBS) and antibiotics (penicillin 100 U/ml, streptomycin 100 μg/ml). Cells were seeded at 5×10^4 cells/per well into wells of 24-well plates containing DMEM supplemented with 10% charcoal-dextran stripped FBS (CDS-FBS). The next day, cells were transfected with a total of 300 ng DNA per well using Lipofectamine Plus (Invitrogen) with plasmids as indicated in the figure legends. Three hours after transfection, cells were covered with DMEM supplemented with 10% CDS-FBS and either hormone dissolved in ethanol, or ethanol, as indicated in the figures. […] After overnight incubation, activities of firefly and Renilla luciferase were determined using the Dual Luciferase Assay system (Promega).
Reporter plasmids expressing firefly luciferase under the control of upstream regions of the IGF-1 promoter were constructed by PCR amplification of segments of interest using primers shown in Table 2, using pOLuc-1630 as a template. The location of each amplified fragment is relative to the transcriptional start site. PCR amplification was conduced using a high fidelity Taq polymerase (Pfx, Invitrogen). PCR products were cloned into pCR2.1-TOPO TA (Invitrogen) and the sequences of the inserts were verified. Inserts were excised with Kpn I and Xho I, and were subcloned into pGL3-Promoter (Promega) at these same sites. PGL3-Promoter expresses firefly luciferase under the control of a minimal promoter.

[2] = tested on: MAFbx; experiment: Chronic denervation: MAFbx mRNA in gastrocnemius (qPCR); format: in vivo, rat
Experimental: Male Wistar rats weighing 200-250 gm (Taconic Farms, Germantown, N.Y.) were provided food and water ad libitum and were housed in a temperature and humidity controlled environment providing a 12:12 hour day-night cycle. For surgical procedures, animals were anesthetized with ketamine/xylazine. The left sciatic nerve was exposed by blunt dissection, and a 1 to 2 mm piece of this nerve was excised just below the level of the femoral head. A sham surgery was performed on the right hind limb in which the sciatic nerve was exposed but was not transected. Twenty eight days later, animals were anesthetized, and Alzet pumps were implanted subcutaneously on the back. […] Testosterone levels after replacement were approximately 15 nM, a high-normal range for rats of this age. Animals were sacrificed 3, 7 or 28 days after implantation of the miniosmotic pumps by inhalation of carbon dioxide. Gastrocnemius muscles were excised and weighed, then flash frozen on dry ice and stored at −80° C.
Total RNA was extracted from skeletal muscle (20 mg) by homogenization in guanidine thiocyanate using a Polytron followed by extraction of total RNA with phenol-chloroform as described by (Chomczynski and Sacchi, Anal Biochem 162: 156-159, 1987). Total RNA was further enriched using RNAeasy minicolumns (Qiagen, Valencia, Calif.). This procedure included digestion of contaminating DNA on the column with RNAse-free DNAse (Qiagen). Total RNA was eluted and quantified by absorbance at 260 nm. One μg of total RNA was used to prepare a cDNA library by reverse transcription (High Capacity cDNA Archive Kit, Applied Biosystems). Libraries were diluted 25-fold with water. Real time PCR was performed Taqman 2×PCR buffer (Applied Biosystems) using an Applied Biosystems 7500 thermocycler. Levels of gene expression in the denervated muscle were expressed as fold induction relative to muscle from the sham-denervated leg of animals administered vehicle. […] Fold-induction was determined using the 2^−ΔΔCt method, using expression of 18S RNA as the normalization control. […]

[3] = HepG2 + AR, increasing doses of testosterone
[4] = HepG2 + AR, testosterone (FIG. 17)

Compound	activation of the upstream promoter of the human IGF-1 gene ([1]; Hep G2 cells, FIG. 18)	dose at which induction of luciferase expression begins, pGL3-230 (ARE1) ([1]; HepG2 + AR) [nM]	induction of pGL3-32 at the lowest concentration tested ([1]; HepG2 + AR, 0.05 nM testosterone) [fold]	maximal induction and sensitivity, pGL3-13A (ARE2) [1, 3]	plateau of induction, pGL3-32 (both AREs) [1, 3] [fold]	plateau of induction, pGL3-230 (ARE1) [1, 3]	increase in luciferase expression, construct containing ARE2 (pGL3-13A) ([1]; HepG2 + AR, testosterone)	increase in luciferase expression, reporters including ARE1 (pGL3-230, pGL3-22) ([1]; HepG2 + AR, testosterone)	induction of reporter containing both ARE1 and ARE2 (pGL3-32) ([1]; HepG2 + AR, testosterone)	responsiveness of reporter with 100 bases downstream of ARE2 (pGL3-25a) ([1]; HepG2 + AR, testosterone)	activation of reporter p3-13a (ARE2) [1, 4]	activation of reporter p3-32 (both AREs) [1, 4] [fold]	induction of luciferase expression with DBD mutant AR (AR-C562G) ([1]; HepG2, pGL3-22, pGL3-13A, pGL3-32, testosterone 50 nM)	MAFbx expression ([2]; denervated muscle, 7-days infusion (35 days after denervation))	reduction of MAFbx expression ([2]; denervated muscle, 28 days administration) [%]	MAFbx expression ([2]; sham-denervated muscle)
C[C@]12CC[C@H]3[C@@H](CCC4=CC(=O)CC[C@@]43C)[C@@H]1CC[C@@H]2O [testosterone]	activated	0.25	~10	intermediate	25	approximately 8 fold	more than 20 fold	more than 5 fold	greatest induction	Little androgen responsiveness	approximately 20 fold	~30	virtually abolished			
C[C@]12CC[C@H]3[C@@H](CCC4=CC(=O)CC[C@@H]43)[C@@H]1CC[C@@H]2O [nandrolone]														tended to be reduced	35	did not alter

— patent publication US7429482B2, “Screening tools for discovery of novel anabolic agents” (United States of America as represented by the Department …, priority 2005, dated 2008)
